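Values below derive from 48-hour exposures of cells grown in 96-well plates, with endpoints linearly interpolated between the two concentrations bracketing the appropriate inhibition level. TGI: concentration producing complete growth inhibition.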
Assays:
Assay in all cases: NCI-60 cell line screen, 48 h
SNB-19 CNS = test system: SNB-19 CNS
OVCAR-5 ovarian = test system: OVCAR-5 ovarian
DMS 273 small cell lung = test system: DMS 273 small cell lung
SNB-75 CNS = test system: SNB-75 CNS
NCI-H522 lung = test system: NCI-H522 lung
EKVX NSCLC = test system: EKVX NSCLC
SF-539 CNS = test system: SF-539 CNS
KM20L2 colon = test system: KM20L2 colon
HOP-92 NSCLC = test system: HOP-92 NSCLC
NCI-H460 lung = test system: NCI-H460 lung
DLD-1 colon = test system: DLD-1 colon
SR leukemia = test system: SR leukemia
A549 NSCLC = test system: A549 NSCLC
SK-MEL-5 melanoma = test system: SK-MEL-5 melanoma
HL-60(TB) leukemia = test system: HL-60(TB) leukemia
MOLT-4 leukemia = test system: MOLT-4 leukemia
U251 CNS = test system: U251 CNS
786-0 renal = test system: 786-0 renal
CAKI-1 renal = test system: CAKI-1 renal
LXFL 529 NSCLC = test system: LXFL 529 NSCLC
LOX IMVI melanoma = test system: LOX IMVI melanoma
OVCAR-8 ovarian = test system: OVCAR-8 ovarian
RXF 393 renal = test system: RXF 393 renal
OVCAR-3 ovarian = test system: OVCAR-3 ovarian
COLO 205 colon = test system: COLO 205 colon
HCT-116 colon = test system: HCT-116 colon
SN12C renal = test system: SN12C renal
RXF-631 renal = test system: RXF-631 renal
RPMI-8226 leukemia = test system: RPMI-8226 leukemia
TK-10 renal = test system: TK-10 renal
HT29 colon = test system: HT29 colon
HOP-62 NSCLC = test system: HOP-62 NSCLC
SF-295 CNS = test system: SF-295 CNS
IGROV1 ovarian = test system: IGROV1 ovarian
NCI-H226 lung = test system: NCI-H226 lung
KM12 colon = test system: KM12 colon
SF-268 CNS = test system: SF-268 CNS
SK-OV-3 ovarian = test system: SK-OV-3 ovarian
HOP-18 NSCLC = test system: HOP-18 NSCLC
SK-MEL-28 melanoma = test system: SK-MEL-28 melanoma
UACC-62 melanoma = test system: UACC-62 melanoma
UACC-257 melanoma = test system: UACC-257 melanoma
HCC-2998 colon = test system: HCC-2998 colon
NCI-H23 lung = test system: NCI-H23 lung
HCT-15 colon = test system: HCT-15 colon
SW-620 colon = test system: SW-620 colon
A498 renal = test system: A498 renal
MALME-3M melanoma = test system: MALME-3M melanoma
UO-31 renal = test system: UO-31 renal
ACHN renal = test system: ACHN renal
SK-MEL-2 melanoma = test system: SK-MEL-2 melanoma
K-562 leukemia = test system: K-562 leukemia
DMS 114 small cell lung = test system: DMS 114 small cell lung
SNB-78 CNS = test system: SNB-78 CNS
CCRF-CEM leukemia = test system: CCRF-CEM leukemia
OVCAR-4 ovarian = test system: OVCAR-4 ovarian
M14 melanoma = test system: M14 melanoma
M19-MEL melanoma = test system: M19-MEL melanoma
XF 498 CNS = test system: XF 498 CNS

Structure (SMILES): C/C(O)=C(\N=O)C(=O)NCc1ccccc1
- TGI (SNB-19 CNS): > 100 µM
- TGI (OVCAR-5 ovarian): > 100 µM
- TGI (DMS 273 small cell lung): > 100 µM
- TGI (SNB-75 CNS): > 100 µM
- TGI (NCI-H522 lung): > 100 µM
- TGI (EKVX NSCLC): > 100 µM
- TGI (SF-539 CNS): > 100 µM
- TGI (KM20L2 colon): > 100 µM
- TGI (HOP-92 NSCLC): > 100 µM
- TGI (NCI-H460 lung): > 100 µM
- TGI (DLD-1 colon): > 100 µM
- TGI (SR leukemia): > 100 µM
- TGI (A549 NSCLC): > 100 µM
- TGI (SK-MEL-5 melanoma): > 100 µM
- TGI (HL-60(TB) leukemia): > 100 µM
- TGI (MOLT-4 leukemia): > 100 µM
- TGI (U251 CNS): > 100 µM
- TGI (786-0 renal): > 100 µM
- TGI (CAKI-1 renal): > 100 µM
- TGI (LXFL 529 NSCLC): > 100 µM
- TGI (LOX IMVI melanoma): 36.6 µM
- TGI (OVCAR-8 ovarian): > 100 µM
- TGI (RXF 393 renal): > 100 µM
- TGI (OVCAR-3 ovarian): > 100 µM
- TGI (COLO 205 colon): > 100 µM
- TGI (HCT-116 colon): > 100 µM
- TGI (SN12C renal): > 100 µM
- TGI (RXF-631 renal): > 100 µM
- TGI (RPMI-8226 leukemia): > 100 µM
- TGI (TK-10 renal): > 100 µM
- TGI (HT29 colon): > 100 µM
- TGI (HOP-62 NSCLC): > 100 µM
- TGI (SF-295 CNS): > 100 µM
- TGI (IGROV1 ovarian): > 100 µM
- TGI (NCI-H226 lung): > 100 µM
- TGI (KM12 colon): > 100 µM
- TGI (SF-268 CNS): > 100 µM
- TGI (SK-OV-3 ovarian): > 100 µM
- TGI (HOP-18 NSCLC): > 100 µM
- TGI (SK-MEL-28 melanoma): > 100 µM
- TGI (UACC-62 melanoma): > 100 µM
- TGI (UACC-257 melanoma): > 100 µM
- TGI (HCC-2998 colon): > 100 µM
- TGI (NCI-H23 lung): > 100 µM
- TGI (HCT-15 colon): > 100 µM
- TGI (SW-620 colon): 31.4 µM
- TGI (A498 renal): > 100 µM
- TGI (MALME-3M melanoma): > 100 µM
- TGI (UO-31 renal): > 100 µM
- TGI (ACHN renal): > 100 µM
- TGI (SK-MEL-2 melanoma): > 100 µM
- TGI (K-562 leukemia): > 100 µM
- TGI (DMS 114 small cell lung): > 100 µM
- TGI (SNB-78 CNS): > 100 µM
- TGI (CCRF-CEM leukemia): > 100 µM

Structure (SMILES): CN1CCCN2CCN(C)CCCN(CC1)CC2
- TGI (OVCAR-4 ovarian): > 100 µM
- TGI (DMS 273 small cell lung): > 100 µM
- TGI (SNB-75 CNS): > 100 µM
- TGI (NCI-H522 lung): > 100 µM
- TGI (SF-539 CNS): > 100 µM
- TGI (HOP-92 NSCLC): > 100 µM
- TGI (NCI-H460 lung): > 100 µM
- TGI (M14 melanoma): > 100 µM
- TGI (DLD-1 colon): > 100 µM
- TGI (SR leukemia): > 100 µM
- TGI (HL-60(TB) leukemia): > 100 µM
- TGI (MOLT-4 leukemia): > 100 µM
- TGI (786-0 renal): > 100 µM
- TGI (CAKI-1 renal): > 100 µM
- TGI (LXFL 529 NSCLC): > 100 µM
- TGI (LOX IMVI melanoma): > 100 µM
- TGI (COLO 205 colon): > 100 µM
- TGI (HCT-116 colon): > 100 µM
- TGI (SN12C renal): > 100 µM
- TGI (RXF-631 renal): > 100 µM
- TGI (RPMI-8226 leukemia): > 100 µM
- TGI (HOP-62 NSCLC): > 100 µM
- TGI (IGROV1 ovarian): > 100 µM
- TGI (NCI-H226 lung): > 100 µM
- TGI (SF-268 CNS): > 100 µM
- TGI (SK-OV-3 ovarian): > 100 µM
- TGI (SK-MEL-28 melanoma): > 100 µM
- TGI (M19-MEL melanoma): > 100 µM
- TGI (UACC-62 melanoma): > 100 µM
- TGI (HCC-2998 colon): > 100 µM
- TGI (NCI-H23 lung): > 100 µM
- TGI (A498 renal): > 100 µM
- TGI (MALME-3M melanoma): > 100 µM
- TGI (XF 498 CNS): > 100 µM
- TGI (UO-31 renal): > 100 µM
- TGI (SK-MEL-2 melanoma): > 100 µM
- TGI (K-562 leukemia): > 100 µM
- TGI (DMS 114 small cell lung): > 100 µM
- TGI (SNB-78 CNS): > 100 µM
- TGI (CCRF-CEM leukemia): > 100 µM

— PubChem BioAssay (NCI)
